Reference: patent US20130317056A1, “NEURONAL NICOTINIC AGONISTS AND METHODS OF CORRELATING COMT SNPS” (ABBVIE INC., priority 2012, published 2013)

How the values were obtained:
[1] = test system: clinically stable subjects with schizophrenia; assay: CANTAB cognition battery, Clinical Study A; assay type: in vivo, human; details: 10 mg and 25 mg dose groups
Excerpt: The primary endpoint was the MCCB composite score, and the primary endpoint analysis was the change on the MCCB composite score from baseline to endpoint versus placebo. Other secondary measures included the MCCB domains, the NSA-16, the CANTAB cognition battery (measured at different time points from the MCCB), and the UPSA-2. The Positive and Negative Syndrome Scale (PANSS) was included to document stability in schizophrenia symptomatology.
The Cambridge Neuropsychological Test Automated Battery (CANTAB) is a computer-based cognitive assessment system consisting of a battery of neuropsychological tests, administered to subjects using a touch screen computer. […] The CANTAB computerized system will be employed to explore the effects of Compound A on cognition. The tests assess the following cognitive domains: executive function, spatial memory, attention and episodic memory. The CANTAB battery took approximately 40 minutes to administer and was given on Days 14, 28, 56, 84 and 98.

[2] = test system: subjects with schizophrenia who were current smokers; assay: MCCB composite score in current smokers by COMT allele type, Clinical Study A; assay type: in vivo, human; details: for MCCB Change from Baseline to Final Mean(SD) / MCCB Between-group Difference (Pooled SD) / MCCB Effect Size (Raw mean): current smokers
Experimental: Analysis of the data by cigarette smoking status (current smoker or current nonsmoker) indicated a significant […] interaction (p=0.015).
A blood sample for genotyping was collected from each subject who consented. Genomic DNA was isolated from whole blood using the FlexiGene DNA AGF3000 kit (Qiagen, Valencia, Calif.), on an AutogenFlex 3000 (AutoGen, Holliston, Mass.). Genotypes were determined using the Pyrosequencing detection method (USA—Qiagen, Inc., Valencia, Calif.). Individuals performing the genotyping were blinded to clinical trial data. The significance of the minor allele against the major allele is shown in column marked “Treatment genotype p-value” (Tables 6 and 7).
The SNPs analyzed were RS6269, RS4633, RS4680, and RS4818. The treatment effects across all 4 SNPs in the minor allele indicated a dose-response relationship. The magnitude of the effect for the Compound A 25 mg treatment group was as low as +1.8 points on the MCCB composite score for SNP4680 (corresponding to a Coen's d effect size of 0.43) to as high as +3.7 points for SNP RS4818 (corresponding to a Coen's d effect size of 0.93). […] In fact, the treatment response for both Compound A active treatment groups was generally less than that of placebo for subjects containing the major COMT allele.

[3] = RS4633 T/T or C/T (minor allele), 25 mg vs placebo
[4] = RS4818 G/C or G/G (minor allele), 10 mg vs placebo
[5] = RS6269 G/G or A/G (minor allele), 10 mg vs placebo
[6] = RS6269 G/G or A/G (minor allele), 25 mg vs placebo

c1ccc(-c2nnc(O[C@@H]3C4CC5C[C@H]3C[N@](C5)C4)s2)cc1 [Compound A, (4s)-4-(5-phenyl-1,3,4-thiadiazol-2-yloxy)-1-azatricyclo[3.3.1.1^3,7]decane]
results on the CANTAB battery relative to MCCB results [1]: consistent | treatment effect on MCCB composite score ([2]; current smokers who contained the major allele for the 4 COMT SNPs): No treatment effect | MCCB Change from Baseline to Final Mean(SD) ([2]; RS4633 C/C (major allele), 25 mg): 0.4(3.9) | MCCB Between-group Difference (Pooled SD) ([2]; RS4633 C/C (major allele), 25 mg vs placebo): −1.1(5.0) | MCCB Change from Baseline to Final Mean(SD) ([2]; RS4633 T/T or C/T (minor allele), 10 mg): −0.3(4.4) | MCCB Between-group Difference (Pooled SD) ([2]; RS4633 T/T or C/T (minor allele), 10 mg vs placebo): −1.2(4.2) | MCCB Change from Baseline to Final Mean(SD) ([2]; RS4633 T/T or C/T (minor allele), 25 mg): 2.9(4.8) | MCCB Between-group Difference (Pooled SD) [2, 3]: 2.0(4.5) | MCCB Effect Size (Raw mean) [2, 3]: 0.44 | MCCB Change from Baseline to Final Mean(SD) ([2]; RS4680 A/A or G/A (minor allele), 10 mg): 0.1(4.6) | MCCB Between-group Difference (Pooled SD) ([2]; RS4680 A/A or G/A (minor allele), 10 mg vs placebo): −1.0(4.1) | MCCB Change from Baseline to Final Mean(SD) ([2]; RS4680 A/A or G/A (minor allele), 25 mg): 2.9(4.8) | MCCB Effect Size (Raw mean) ([2]; RS4680 A/A or G/A (minor allele), 25 mg vs placebo): 0.43 | MCCB Change from Baseline to Final Mean(SD) ([2]; RS4680 G/G (major allele), 25 mg): 0.4(3.9) | MCCB Between-group Difference (Pooled SD) ([2]; RS4680 G/G (major allele), 25 mg vs placebo): −0.9(5.3) | MCCB Change from Baseline to Final Mean(SD) ([2]; RS4818 C/C (major allele), 25 mg): 1.2(4.6) | MCCB Between-group Difference (Pooled SD) ([2]; RS4818 C/C (major allele), 25 mg vs placebo): −1.0(4.9) | MCCB Change from Baseline to Final Mean(SD) ([2]; RS4818 G/C or G/G (minor allele), 10 mg): 1.7(3.7) | MCCB Between-group Difference (Pooled SD) [2, 4]: 2.1(3.6) | MCCB Effect Size (Raw mean) [2, 4]: 0.58 | MCCB Change from Baseline to Final Mean(SD) ([2]; RS4818 G/C or G/G (minor allele), 25 mg): 3.4(4.4) | MCCB Effect Size (Raw mean) ([2]; RS4818 G/C or G/G (minor allele), 25 mg vs placebo): 0.93 | MCCB Change from Baseline to Final Mean(SD) ([2]; RS6269 A/A (major allele), 25 mg): 0.8(4.6) | MCCB Between-group Difference (Pooled SD) ([2]; RS6269 A/A (major allele), 25 mg vs placebo): −1.0(3.9) | MCCB Change from Baseline to Final Mean(SD) ([2]; RS6269 G/G or A/G (minor allele), 10 mg): 2.9(4.2) | MCCB Between-group Difference (Pooled SD) [2, 5]: 1.8(5.0) | MCCB Effect Size (Raw mean) [2, 5]: 0.36 | MCCB Change from Baseline to Final Mean(SD) ([2]; RS6269 G/G or A/G (minor allele), 25 mg): 3.1(4.4) | MCCB Between-group Difference (Pooled SD) [2, 6]: 2.0(5.1) | MCCB Effect Size (Raw mean) [2, 6]: 0.40
